Source: PubChem BioAssay (NCI)
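Assay format: 96-well plates, 48-hour exposure. GI50 marks 50% less growth. TGI is the concentration that stops growth completely.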

Experiments:
Experiment in all cases: NCI anticancer screen, dose series, 48 h
RXF 393 renal = test system: RXF 393 renal
COLO 205 colon = test system: COLO 205 colon
786-0 renal = test system: 786-0 renal
MALME-3M melanoma = test system: MALME-3M melanoma
SK-MEL-28 melanoma = test system: SK-MEL-28 melanoma
RPMI-8226 leukemia = test system: RPMI-8226 leukemia
U251 CNS = test system: U251 CNS
NCI/ADR-RES ovarian = test system: NCI/ADR-RES ovarian
HCT-15 colon = test system: HCT-15 colon
PC-3 prostate = test system: PC-3 prostate
ACHN renal = test system: ACHN renal
SW-620 colon = test system: SW-620 colon
KM12 colon = test system: KM12 colon
NCI-H522 lung = test system: NCI-H522 lung
SNB-75 CNS = test system: SNB-75 CNS
HOP-62 NSCLC = test system: HOP-62 NSCLC
SR leukemia = test system: SR leukemia
T-47D breast = test system: T-47D breast
NCI-H23 lung = test system: NCI-H23 lung
SK-MEL-2 melanoma = test system: SK-MEL-2 melanoma
HS 578T breast = test system: HS 578T breast
CCRF-CEM leukemia = test system: CCRF-CEM leukemia
EKVX NSCLC = test system: EKVX NSCLC
K-562 leukemia = test system: K-562 leukemia
SK-MEL-5 melanoma = test system: SK-MEL-5 melanoma
NCI-H460 lung = test system: NCI-H460 lung
UACC-62 melanoma = test system: UACC-62 melanoma
LOX IMVI melanoma = test system: LOX IMVI melanoma
TK-10 renal = test system: TK-10 renal
MDA-MB-231 breast = test system: MDA-MB-231 breast
OVCAR-8 ovarian = test system: OVCAR-8 ovarian
SF-268 CNS = test system: SF-268 CNS
OVCAR-4 ovarian = test system: OVCAR-4 ovarian
HT29 colon = test system: HT29 colon
SF-295 CNS = test system: SF-295 CNS
HCC-2998 colon = test system: HCC-2998 colon
HL-60(TB) leukemia = test system: HL-60(TB) leukemia
SNB-19 CNS = test system: SNB-19 CNS
OVCAR-5 ovarian = test system: OVCAR-5 ovarian
DU-145 prostate = test system: DU-145 prostate
SK-OV-3 ovarian = test system: SK-OV-3 ovarian
UACC-257 melanoma = test system: UACC-257 melanoma
IGROV1 ovarian = test system: IGROV1 ovarian
CAKI-1 renal = test system: CAKI-1 renal
HOP-92 NSCLC = test system: HOP-92 NSCLC
MCF7 breast = test system: MCF7 breast
NCI-H226 lung = test system: NCI-H226 lung
BT-549 breast = test system: BT-549 breast
SF-539 CNS = test system: SF-539 CNS
MOLT-4 leukemia = test system: MOLT-4 leukemia
HCT-116 colon = test system: HCT-116 colon
A549 NSCLC = test system: A549 NSCLC
MDA-MB-435 = test system: MDA-MB-435
M14 melanoma = test system: M14 melanoma
SN12C renal = test system: SN12C renal
OVCAR-3 ovarian = test system: OVCAR-3 ovarian
UO-31 renal = test system: UO-31 renal

Compound: CC(=O)O[C@H]1C(=O)[C@@]2(C)[C@H]([C@H](OC(=O)c3ccccc3)[C@]3(O)C[C@H](OC(=O)[C@H](O)[C@@H](NC(=O)C(C)(C)C)c4ccccc4)C(C)=C1C3(C)C)[C@]1(OC(C)=O)CO[C@@H]1C[C@@H]2O
- TGI (RXF 393 renal): 2.64 µM
- TGI (COLO 205 colon): 0.251 µM
- TGI (786-0 renal): > 5.47 µM
- TGI (MALME-3M melanoma): > 10 µM
- TGI (SK-MEL-28 melanoma): > 10 µM
- TGI (RPMI-8226 leukemia): > 10 µM
- TGI (U251 CNS): > 3.9 µM
- TGI (NCI/ADR-RES ovarian): > 10 µM
- TGI (HCT-15 colon): > 10 µM
- TGI (PC-3 prostate): 1.31 µM
- TGI (ACHN renal): > 10 µM
- TGI (SW-620 colon): > 10 µM
- TGI (KM12 colon): > 10 µM
- TGI (NCI-H522 lung): 0.105 µM
- TGI (SNB-75 CNS): 2.19 µM
- TGI (HOP-62 NSCLC): > 10 µM
- TGI (SR leukemia): > 2.58 µM
- TGI (T-47D breast): > 10 µM
- TGI (NCI-H23 lung): > 10 µM
- TGI (SK-MEL-2 melanoma): > 3.28 µM
- TGI (HS 578T breast): 0.389 µM
- TGI (CCRF-CEM leukemia): > 10 µM
- TGI (EKVX NSCLC): > 10 µM
- TGI (K-562 leukemia): > 10 µM
- TGI (SK-MEL-5 melanoma): > 10 µM
- TGI (NCI-H460 lung): > 10 µM
- TGI (UACC-62 melanoma): > 10 µM
- TGI (LOX IMVI melanoma): > 10 µM
- TGI (TK-10 renal): > 10 µM
- TGI (MDA-MB-231 breast): > 10 µM
- TGI (OVCAR-8 ovarian): > 3.84 µM
- TGI (SF-268 CNS): > 10 µM
- TGI (OVCAR-4 ovarian): > 10 µM
- TGI (HT29 colon): > 10 µM
- TGI (SF-295 CNS): 1.61 µM
- TGI (HCC-2998 colon): 0.44 µM
- TGI (HL-60(TB) leukemia): 0.0791 µM
- TGI (SNB-19 CNS): > 10 µM
- TGI (OVCAR-5 ovarian): > 8.6 µM
- TGI (DU-145 prostate): 0.839 µM
- TGI (SK-OV-3 ovarian): 0.368 µM
- TGI (UACC-257 melanoma): > 10 µM
- TGI (IGROV1 ovarian): > 10 µM
- TGI (CAKI-1 renal): > 10 µM
- TGI (HOP-92 NSCLC): > 10 µM
- TGI (MCF7 breast): > 10 µM
- TGI (NCI-H226 lung): > 10 µM
- TGI (BT-549 breast): > 10 µM
- TGI (SF-539 CNS): 0.413 µM
- TGI (MOLT-4 leukemia): > 8.96 µM
- TGI (HCT-116 colon): > 3.23 µM
- TGI (A549 NSCLC): > 10 µM
- TGI (MDA-MB-435): 0.034 µM
- TGI (M14 melanoma): > 4.71 µM
- TGI (SN12C renal): > 10 µM

Compound: OCC1OC(n2cnc3c(Cl)nc(Cl)cc32)C(O)C1O (centres undefined)
- GI50 (OVCAR-3 ovarian): > 100 µM
- TGI (OVCAR-3 ovarian): > 100 µM
- GI50 (RXF 393 renal): > 100 µM
- TGI (RXF 393 renal): > 100 µM
- GI50 (COLO 205 colon): > 100 µM
- TGI (COLO 205 colon): > 100 µM
- GI50 (786-0 renal): > 100 µM
- TGI (786-0 renal): > 100 µM
- GI50 (MALME-3M melanoma): > 100 µM
- TGI (MALME-3M melanoma): > 100 µM
- GI50 (SK-MEL-28 melanoma): > 100 µM
- TGI (SK-MEL-28 melanoma): > 100 µM
- GI50 (RPMI-8226 leukemia): > 100 µM
- TGI (RPMI-8226 leukemia): > 100 µM
- GI50 (NCI/ADR-RES ovarian): > 100 µM
- TGI (NCI/ADR-RES ovarian): > 100 µM
- GI50 (HCT-15 colon): > 100 µM
- TGI (HCT-15 colon): > 100 µM
- GI50 (PC-3 prostate): > 100 µM
- TGI (PC-3 prostate): > 100 µM
- GI50 (ACHN renal): > 100 µM
- TGI (ACHN renal): > 100 µM
- GI50 (SW-620 colon): > 100 µM
- TGI (SW-620 colon): > 100 µM
- GI50 (KM12 colon): > 100 µM
- TGI (KM12 colon): > 100 µM
- GI50 (NCI-H522 lung): > 100 µM
- TGI (NCI-H522 lung): > 100 µM
- GI50 (HOP-62 NSCLC): > 100 µM
- TGI (HOP-62 NSCLC): > 100 µM
- GI50 (T-47D breast): > 100 µM
- TGI (T-47D breast): > 100 µM
- GI50 (NCI-H23 lung): > 100 µM
- TGI (NCI-H23 lung): > 100 µM
- GI50 (HS 578T breast): 19.7 µM
- TGI (HS 578T breast): > 100 µM
- GI50 (CCRF-CEM leukemia): > 100 µM
- TGI (CCRF-CEM leukemia): > 100 µM
- GI50 (EKVX NSCLC): > 100 µM
- TGI (EKVX NSCLC): > 100 µM
- GI50 (K-562 leukemia): > 100 µM
- TGI (K-562 leukemia): > 100 µM
- GI50 (NCI-H460 lung): > 100 µM
- TGI (NCI-H460 lung): > 100 µM
- GI50 (UACC-62 melanoma): > 100 µM
- TGI (UACC-62 melanoma): > 100 µM
- GI50 (TK-10 renal): > 100 µM
- TGI (TK-10 renal): > 100 µM
- GI50 (OVCAR-8 ovarian): > 100 µM
- TGI (OVCAR-8 ovarian): > 100 µM
- GI50 (SF-268 CNS): > 100 µM
- TGI (SF-268 CNS): > 100 µM
- GI50 (HT29 colon): > 100 µM
- TGI (HT29 colon): > 100 µM
- GI50 (SF-295 CNS): > 100 µM
- TGI (SF-295 CNS): > 100 µM
- GI50 (UO-31 renal): > 100 µM
- TGI (UO-31 renal): > 100 µM
- GI50 (HCC-2998 colon): > 100 µM
- TGI (HCC-2998 colon): > 100 µM
- GI50 (HL-60(TB) leukemia): > 100 µM
- TGI (HL-60(TB) leukemia): > 100 µM
- GI50 (SNB-19 CNS): > 100 µM
- TGI (SNB-19 CNS): > 100 µM
- GI50 (OVCAR-5 ovarian): > 100 µM
- TGI (OVCAR-5 ovarian): > 100 µM
- GI50 (DU-145 prostate): > 100 µM
- TGI (DU-145 prostate): > 100 µM
- GI50 (SK-OV-3 ovarian): > 100 µM
- TGI (SK-OV-3 ovarian): > 100 µM
- GI50 (IGROV1 ovarian): > 100 µM
- TGI (IGROV1 ovarian): > 100 µM
- GI50 (CAKI-1 renal): > 100 µM
- TGI (CAKI-1 renal): > 100 µM
- GI50 (HOP-92 NSCLC): 37.4 µM
- TGI (HOP-92 NSCLC): > 100 µM
- GI50 (MCF7 breast): > 100 µM
- TGI (MCF7 breast): > 100 µM
- GI50 (BT-549 breast): > 100 µM
- TGI (BT-549 breast): > 100 µM
- GI50 (SF-539 CNS): > 100 µM
- TGI (SF-539 CNS): > 100 µM
- GI50 (MOLT-4 leukemia): > 100 µM
- TGI (MOLT-4 leukemia): > 100 µM
- GI50 (HCT-116 colon): > 100 µM
- TGI (HCT-116 colon): > 100 µM
- GI50 (A549 NSCLC): > 100 µM
- TGI (A549 NSCLC): > 100 µM
- GI50 (MDA-MB-435): > 100 µM
- TGI (MDA-MB-435): > 100 µM
- GI50 (M14 melanoma): > 100 µM
- TGI (M14 melanoma): > 100 µM
- GI50 (SN12C renal): > 100 µM
- TGI (SN12C renal): > 100 µM
